US4617336A, “Acylated calixarene stabilizers” (Ciba-Geigy Corporation, priority 1985, dated 1986)
Blank lines part the entries; values can stand above or below the substance they belong to.

How the values were obtained:
[1] = Solubility in hydrocarbon solvents; format: physicochemical; conditions: 24° to 25° C.
Description: This example provides solubility data for the instant stabilizers in two hydrocarbon solvents. The indicated stabilizer is dissolved in the minimal amount of solvent at 24° to 25° C. The value range reported is percent by weight of additive in total weight of solution.

[2] = Oven ageing of stabilized polypropylene plaques (25 mil) at 150° C., oxidative stability
Description: Unstabilized polypropylene powder (Hercules Profax 6501) is thoroughly blended with the indicated amount of additive. The blended materials are then milled on a two roll mill at 182° C. for 5 minutes, after which time the stabilized polypropylene is sheeted from the mill and allowed to cool. The milled polypropylene is then cut into pieces and compression molded on a hydraulic press at 220° C. and 175 psi (1.2×10^6 Pa) into 25 mil thick plaques. The plaques are then exposed to air in a force draft oven maintained at 150° C. The plaques are considered to have failed on showing the first signs of decomposition (e.g. cracking or brown edges).

[3] = FS/BL (fluorescent sunlight/black light) exposure of polypropylene films (5 mil); conditions: failure = 0.5 carbonyl absorbance
From the text: The samples are exposed in a fluorescent sunlight/black light chamber until failure. Failure is taken as the hours required to reach 0.5 carbonyl absorbance by infrared spectroscopy on the exposed films.

[4] = Oxidation stability of polypropylene stretched tapes (2 mil) in forced draft oven at 115° C.; conditions: additive 0.2%
Description: The oxidation stability of milled polypropylene samples (prepared as in Examples 9 and 10), containing the indicated stabilizers, is measured on stretched tapes of 2 mil thickness on exposure to air in a forced draft oven at 115° C.

[5] = Angle to break of oven aged ABS plaques (ASTM D747); parameters: key: NB: No break; conditions: additive 0.225%
Description: This example illustrates the stabilization of acrylonitrile-butadiene-styrene (ABS) copolymer by the compounds of this invention. The testing procedure is as follows:
The antioxidant is dissolved in toluene and emulsified in water using Triton X-100 (Rohm & Haas) as a surfactant. The resultant emulsion is mixed well with ABS copolymer containing 40% butadiene (rubber). Steam coagulation of the emulsion/latex mixture yields 40% rubber stabilized ABS crumbs which are then dried at 80° C. for 30 minutes in a fluidized bed drier. The resultant crumbs are combined with styrene-acrylonitrile pellets on a two roll mill for six minutes. The resultant 15% rubber containing ABS milled sheet is compression molded at 400° F. into 60 mil plaques which are die cut into 1"×3" specimens. The sample plaques are then oven aged at 150° C. and the angle to break is monitored (ASTM D747). This consists of applying a set load through an angle with one stationary point and one moveable point, flexing the sample. The angle is monitored for several aging periods until the specimen breaks.

[6] = additive 0.2%, no co-stabilizer

Substance: Para-carbooctadecyloxy-hydroxycalix(n)arene [Example 7]
Oxidative Stability Time to Failure [4]: 290 h
Oxidative Stability Time to Failure ([2]; additive 0.1% with 0.3% DSTDP): 250 h
Oxidative Stability Time to Failure [2, 6]: 30 h

Substance: Para-carbobutoxy-hydroxycalix(n)arene [Example 8]
Oxidative Stability Time to Failure ([2]; additive 0.1% with 0.3% DSTDP): 210 h
Oxidative Stability Time to Failure [2, 6]: 20 h

Substance: Para-[2(carbooctadecyloxy)ethyl]hydroxycalix[n]arene [Example 4]
Angle to Break (Oven Aged Samples) ([5]; 0 Min at 150° C.): NB
Angle to Break (Oven Aged Samples) ([5]; 30 Min at 150° C.): NB
Angle to Break (Oven Aged Samples) ([5]; 45 Min at 150° C.): NB
Angle to Break (Oven Aged Samples) ([5]; 60 Min at 150° C.): NB
Angle to Break (Oven Aged Samples) ([5]; 120 Min at 150° C.): 55
Oxidative Stability Time to Failure ([2]; additive 0.1% with 0.3% DLTDP): 340 h
Oxidative Stability Time to Failure ([2]; additive 0.3%, no co-stabilizer): 150 h
FS/BL Test Results (Hours to Failure) ([3]; additive 0.3% by weight): 240 h

Further lines, with some results ahead:

wt/wt % Solubility in Toluene [1]: > 50 wt/wt %
Oxidative Stability Time to Failure ([2]; additive 0.1% with 0.3% DLTDP): 420 h
Oxidative Stability Time to Failure [2, 6]: 150 h
Substance: Para-[2-(carbododecyloxy)ethyl]hydroxycalix[n]arene [Example 3]
FS/BL Test Results (Hours to Failure) ([3]; additive 0.2% by weight): 230 h

Oxidative Stability Time to Failure ([2]; additive 0.1% with 0.3% DSTDP): 210 h
Oxidative Stability Time to Failure [2, 6]: 30 h
Substance: Para-carbododecyloxyhydroxy-calix(n)arene [Example 5]
